Measurements from patent publication US11535609B2, “Pyrazine-2(1H)-ketone compound preparation method” (ZHANGZHOU PIEN TZE HUANG PHARMACEUTICAL CO., LTD., priority 2019, dated 2022).

What was measured:
wild-type FGFR = experiment: Inhibitory activity of wild-type kinase in vitro (overall conclusion); assay type: biochemical, human; details: conclusion in words
Procedure: The IC50 value was determined using ^33P isotope-labeled kinase activity test (Reaction Biology Corp) to evaluate the inhibitory ability of the compounds to be tested on human FGFR4 and VEGFR2.
Buffer conditions: 20 mM 4-(2-hydroxyethyl)-1-piperazineethanesulfonic acid (Hepes) (pH 7.5), 10 mM MgCl2, 1 mM ethylene glycol-bis-(2-aminoethyl ether)tetra acetic acid (EGTA), 0.02% polyoxyethylene lauryl ether (Brij35), 0.02 mg/ml bovine serum albumin (BSA), 0.1 mM sodium vanadate (Na3VO4), 2 mM dithiothreitol (DTT), 1% DMSO.
Experimental steps: At room temperature, the compounds to be tested were dissolved in DMSO to prepare a 10 mM solution for use. The substrate was dissolved in the freshly prepared buffer, and the kinase to be tested was added thereto and mixed well. The DMSO solution in which the compounds to be tested were dissolved was added to the above-mentioned homogeneous reaction solution using acoustic technology (Echo 550). The compound concentration in the reaction solution is 10 μM, 3.33 μM, 1.11 μM, 0.370 μM, 0.123 μM, 41.2 nM, 13.7 nM, 4.57 nM, 1.52 nM, 0.508 nM, or 10 μM, 2.50 μM, 0.62 μM, 0.156 μM, 39.1 nM, 9.8 nM, 2.4 nM, 0.61 nM, 0.15 nM, 0.038 nM. […] After the filter paper was repeatedly washed with 0.75% phosphoric acid solution, the radioactivity of the phosphorylated substrate remaining on the filter paper was measured. […]

[1] = Pharmacokinetics in mice, single gavage; assay type: in vivo, CD-1 mouse (male)
Procedure: Experimental purpose: To test the pharmacokinetics of the compound in mice
CD-1 mouse (male), vehicle (0.5% (w/v) methylcellulose 0.5% (v/v) Tween 80 aqueous solution), trifluoroacetate of compound 0027.
The vehicle was an aqueous solution of 0.5% (w/v) methylcellulose and 0.5% (v/v) Tween 80, and it was prepared according to the following procedure:
Formulation of Preparations for Intragastric Administration: […]
a. An appropriate amount of the test product was weighed and put into a glass bottle;
b. 70% volume of vehicle (0.5% (w/v) methyl cellulose 0.5% (v/v) Tween 80 aqueous solution) was added;
c. The preparation was stirred until it was visually homogeneous, and subjected to ultrasound in water bath as needed;
e. Make up the remaining volume of 0.5% methylcellulose+0.5% Tween 80, and the mixture was stirred until being visually homogeneous.
Animals in groups 1 and 2 were administrated 5 mg/mL and 30 mg/mL compounds by single gavage, with a dose volume of 10 mL/kg.
The body weight of the animals was weighed before administration, and the administration volume was calculated based on the body weight.
Whole blood samples (30 μL) were collected at the prescribed time (0.25, 0.5, 1, 2, 4, 6, 8, 24 h) through saphenous vein blood collection, and the actual blood collection time was recorded in the test record. The acceptable error of the collection time point was a time point within 1 hour of the administration ±1 minute, and the acceptable error of other time points is a theoretical time ±5%.
All blood samples were immediately transferred to labeled commercial centrifuge tubes containing K2-EDTA. After being collected, the blood samples were centrifuged at 3200 rpm for 10 minutes at 4° C. to aspirate the supernatant plasma, which was quickly placed in dry ice, kept at −20° C. or a lower temperature for LC-MS/MS analysis. The pharmacokinetic parameters were calculated.

- inhibitory activity against wild-type FGFR (wild-type FGFR): good inhibitory activity
- selectivity towards FGFR2 and FGFR3 compared to FGFR1 and FGFR4 (wild-type FGFR): relative high selectivity
- AUC0-inf ([1]; CD-1 mouse, gavage, 50 mpk): 95.847 µM·h
- AUC0-last ([1]; CD-1 mouse, gavage, 50 mpk): 85.826 µM·h
- MRT0-inf ([1]; CD-1 mouse, gavage, 50 mpk): 5.39 h
- MRT0-last ([1]; CD-1 mouse, gavage, 50 mpk): 4.33 h
- T1/2 ([1]; CD-1 mouse, gavage, 50 mpk): 2.46 h
- Tmax ([1]; CD-1 mouse, gavage, 50 mpk): 1.00 h
- AUC0-last ([1]; CD-1 mouse, gavage, 300 mpk): 699.413 µM·h
- MRT0-last ([1]; CD-1 mouse, gavage, 300 mpk): 11.1 h
- Tmax ([1]; CD-1 mouse, gavage, 300 mpk): 7.00 h
- pharmacokinetic indexes in mice ([1]; conclusion in words): good pharmacokinetic indexes
Compound: COc1cc(OC)c(Cl)c(-c2nc(-c3nc(-c4cn(C)nc4C)cnc3N)cn(C)c2=O)c1
